Where two headings read alike, the source gives them in different places.
How the values were obtained:
CD74 = experiment: Cell-based ELISA for constitutive CD74 expression; design: species or system human
Cell viability (MTT) = conditions: human
in vitro = conditions: human
[1] = 4 µM, 48 h, NCI-N87 cells; mean ± average deviation
[2] = 20 µM, 48 h, NCI-N87 cells; mean ± average deviation
[3] = 100 µM, 48 h, NCI-N87 cells; mean ± average deviation
[4] = NCI-N87 cells, 48 h; mean of duplicate experiments; unit printed in b25 only; read-out: IC50 (50% inhibitory concentration) for constitutive CD74 expression
[5] = NCI-N87 gastric carcinoma cells

| Structure (SMILES) | IR (%) inhibition rate of CD74 expression (CD74; [1]) | IR (%) inhibition rate of CD74 expression (CD74; [2]) | IR (%) inhibition rate of CD74 expression (CD74; [3]) | IC50 (CD74; [4]) | CC50 at 48 h (Cell viability (MTT)) | viability at 48 h, 4 µM (Cell viability (MTT); [5]) | viability at 48 h, 20 µM (Cell viability (MTT); [5]) | viability at 48 h, 100 µM (Cell viability (MTT); [5]) | CC50 at 48 h (Cell viability (MTT); [5]) | IR (%) inhibition rate of CD74 expression (CD74; 20 µM, 48 h, NCI-N87 cells; mean ± average deviation; listed as gallic acid) | Suppression of CD74 expression (in words) (CD74; NCI-N87 cells, 48 h) | viability at 48 h, 4 µM (in vitro) | viability at 48 h, 20 µM (in vitro) | viability at 48 h, 100 µM (in vitro) | IC50 (CD74; read-out: IC50 (50% inhibitory concentration) for constitutive CD74 expression; NCI-N87 cells, 48 h; mean of duplicate experiments; unit printed in b25 only) |
| --- | --- | --- | --- | --- | --- | --- | --- | --- | --- | --- | --- | --- | --- | --- | --- |
| C[C@@H]1O[C@@H](OC[C@H]2O[C@@H](Oc3c(-c4ccc(O)c(O)c4)oc4cc(O)cc(O)c4c3=O)[C@H](O)[C@@H](O)[C@@H]2O)[C@H](O)[C@H](O)[C@H]1O [Rutin] | −4.3 ± 2.8% | −3.0 ± 0.0% | 11 ± 4.5% | > 100 µM | > 100 µM | 97 ± 1.2% | 100 ± 1.1% | 80 ± 4.7% |  |  |  |  |  |  |  |
| COc1cc(/C=C/C(=O)O)ccc1O [Ferulic acid] | −5.1 ± 4.3% | 15 ± 5.8% | 20 ± 3.8% | > 100 µM | > 100 µM | 96 ± 2.3% | 93 ± 0.7% | 82 ± 5.9% |  |  |  |  |  |  |  |
| O=S(=O)(O)O/N=C(/CCc1ccccc1)S[C@@H]1O[C@H](CO)[C@@H](O)[C@H](O)[C@H]1O [PEGLS, gluconasturtiin] | −11 ± 4.4% | −25 ± 1.3% | −13 ± 3.8% | > 100 µM |  | 99 ± 1.4% | 88 ± 1.7% | 90 ± 1.4% | > 100 µM |  |  |  |  |  |  |
| CC(C)=CC(=O)CC(C)c1ccc(C)cc1 (stereo not shown) [ar-Turmerone] | 22 ± 0.5% | 39 ± 1.8% |  | 30.8 µM | > 100 µM | 97 ± 4.1% | 100 ± 3.2% | 57 ± 1.3% |  |  |  |  |  |  |  |
| O=C(O)c1cc(O)c(O)c(O)c1 [Gallic acid] | 15 ± 2.4% | 57 ± 3.7% | 47 ± 8.3% | 96.4 µM | > 100 µM | 97 ± 0.2% | 73 ± 2.4% | 97 ± 2.1% |  | 40–65% |  |  |  |  |  |
| COc1ccc(-c2cc(=O)c3c(OC)c(OC)c(OC)c(OC)c3o2)cc1 [Tangeretin] | −3.3 ± 3.3% | 21 ± 3.1% |  | 39.5 µM | > 100 µM | 98 ± 2.7% | 100 ± 0.5% | 63 ± 3.1% |  |  | significant activity |  |  |  |  |
| S=C=NCCc1ccccc1 [PEITC, phenetyl isothiocyanate] | −17 ± 2.3% |  |  | < 20 µM | 61.3 µM |  |  |  |  |  |  | 97 ± 4.8% | 43 ± 1.8% | 37 ± 2.2% |  |
| C=C[C@H](OC(C)=O)c1ccc(OC(C)=O)cc1 [ACA, 1'-acetoxychavicol acetate] | 16 ± 1.6% |  |  | < 20 µM |  | 92 ± 3.4% | 20 ± 0.2% | 6.1 ± 0.3% | 25 µM |  |  |  |  |  |  |
| C=CCC/C(=N/OS(=O)(=O)O)S[C@@H]1O[C@H](CO)[C@@H](O)[C@H](O)[C@H]1O [BUGLS, gluconapin] | –15 ± 0.0% | −19 ± 2.5% | 4.0 ± 1.0% | > 100 µM |  | 88 ± 6.9% | 80 ± 3.5% | 79 ± 5.6% | > 100 µM |  |  |  |  |  |  |
| C=CCCN=C=S [BUITC, butenyl isothiocyanate] | –9.0 ± 0.4% | 2.3 ± 0.8% |  |  | 81.5 µM | 71 ± 5.8% | 73 ± 3.3% | 44 ± 2.4% |  |  |  |  |  |  | > 100 µM |
| Cn1c(=O)c2c(ncn2C)n(C)c1=O [Caffeine] | 10 ± 7.7% | 22 ± 6.9% | 41 ± 9.2% | > 100 µM |  | 100 ± 2.6% | 100 ± 2.2% | 87 ± 1.9% |  |  |  |  |  |  |  |
